# What was measured:
# [1] = target: HIV-1 reverse transcriptase (Human immunodeficiency virus type 1 group M subtype B (isolate HXB2) (HIV-1), UniProt P04585); experiment: Enzymatic assay against HIV-1 reverse transcriptase (sandwich-ELISA, ROCHE colorimetric reverse transcriptase kit); assay type: biochemical; conditions: 4-fold serial dilutions
# Description: Enzymatic Method for Determining Activity Against Reverse Transcriptase
# Biotin and DIG-labelled nucleotides are incorporated into cDNA strands polymerized on an RNA template by the action of HIV-1 reverse transcriptase. The cDNA products are bound to streptavidin-coated wells of 96-well plate inserts, and their associated DIG-moieties detected by incubation with anti-DIG antibodies conjugated to horseradish peroxidase (HRP).
# In the single concentration screen, compounds are incubated with HIV-1 reverse trancriptase and substrate and the residual enzyme activity expressed as a percentage relative to a control without inhibitor.
# HIV-1 [2] = experiment: Whole cell MAGI anti-HIV assay (MAGI-R5 cells, LTR-β-galactosidase reporter); assay type: cell-based; conditions: Human immunodeficiency virus 1, MAGI
# HIV-1 [3] = experiment: Whole cell PBMC anti-HIV assay (human PBMCs, supernatant reverse transcriptase activity); assay type: cell-based; conditions: Human immunodeficiency virus 1, PBMC
# Description: Fresh human PBMCs, seronegative for HIV and HBV, were isolated from screened donors (Interstate Blood Bank, Inc. Memphis, Tenn.). Cells were pelleted/washed 2-3 times by low speed centrifugation and re-suspension in PBS to remove contaminating platelets. The Leukophoresed blood was then diluted 1:1 with Dulbecco's Phosphate Buffered Saline (DPBS) and layered over 14 mL of Lymphocyte Separation Medium (LSM; Cellgro® by Mediatech, Inc.; density 1.078+/−0.002 g/ml; Cat.#85-072-CL) in a 50 mL centrifuge tube and then centrifuged for 30 minutes at 600×g. Banded PBMCs were gently aspirated from the resulting interface and subsequently washed 2× with PBS by low speed centrifugation. […]
# For the standard PBMC assay, PHA-P stimulated cells from at least two normal donors were pooled (mixed together), diluted in fresh medium to a final concentration of 1×10^6 cells/mL, and plated in the interior wells of a 96 well round bottom microplate at 50 μl/well (5×10^4 cells/well) in a standard format developed by the Infectious Disease Research department of Southern Research Institute. Pooling (mixing) of mononuclear cells from more than one donor is used to minimize the variability observed between individual donors, which results from quantitative and qualitative differences in HIV infection and overall response to the PHA and IL-2 of primary lymphocyte populations. […]
Structure (SMILES),IC50 [1],IC50 (HIV-1 [2]),IC50 (HIV-1 [3])
"Clc1ccccc1-c1nc2cccc(Cl)n2c1NC1CCCCC1 [Compound 104, 5-chloro-2-(2-chlorophenyl)-N-cyclohexylimidazo[1,2-a]pyridin-3-amine]",3.74 µM,,
"Cc1ccc(Cl)c(-c2nc3ccccn3c2NC2CCCCC2)c1F [Compound 74, 2-(6-chloro-2-fluoro-3-methylphenyl)-N-cyclohexylimidazo[1,2-a]pyridin-3-amine]",90 µM,2.36 µM,
"Clc1ccccc1-c1nc2cccc(Br)n2c1NC1CCCCC1 [Compound 42, 5-bromo-2-(2-chlorophenyl)-N-cyclohexylimidazo[1,2-a]pyridin-3-amine]",4.62 µM,3.15 µM,
"Cc1cccn2c(NC3CCCC3)c(-c3ccccc3Cl)nc12 [Compound 170, 2-(2-chlorophenyl)-N-cyclopentyl-8-methylimidazo[1,2-a]pyridin-3-amine]",15.9 µM,,
"Clc1ccccc1-c1nc2ccc3ccccc3n2c1NC1CCCCC1 [Compound 97, 2-(2-chlorophenyl)-N-cyclohexylimidazo[1,2-a]quinolin-1-amine]",7.52 µM,,
"Cc1ccc2nc(-c3ccccc3Cl)c(NC3CCCCC3)n2c1 [Compound 163, 2-(2-chlorophenyl)-N-cyclohexyl-6-methylimidazo[1,2-a]pyridin-3-amine]",5.39 µM,,
"Cc1cccc2nc(-c3ccccc3Cl)c(NC3CCCC3)n12 [Compound 171, 2-(2-chlorophenyl)-N-cyclopentyl-5-methylimidazo[1,2-a]pyridin-3-amine]",1.43 µM,,
"Clc1ccccc1-c1nc2cccc(Cl)n2c1NC1CCCC1 [Compound 48, 5-chloro-2-(2-chlorophenyl)-N-cyclopentylimidazo[1,2-a]pyridin-3-amine]",5.14 µM,,
"Clc1ccccc1-c1nc2ccccn2c1NC1CCCC1 [Compound 118, 2-(2-chlorophenyl)-N-cyclopentylimidazo[1,2-a]pyridin-3-amine]",,2.19 µM,
"Clc1ccccc1-c1nc2ccccn2c1NC1CCCCC1 [Compound 8, 2-(2-chlorophenyl)-N-cyclohexylimidazo[1,2-a]pyridin-3-amine]",,,0.16 µM
"Cc1cccc2nc(-c3ccccc3Cl)c(NC3CCCCC3)n12 [Compound 166, 2-(2-chlorophenyl)-N-cyclohexyl-5-methylimidazo[1,2-a]pyridin-3-amine]",1.55 µM,,
"Cc1ccnc2c1NC(=O)c1cccnc1N2C1CC1 [Nevirapine, reference compound]",,0.1 µM,0.033 µM
"Clc1ccccc1-c1nc2ccc(Br)cn2c1NC1CCCCC1 [Compound 99, 6-bromo-2-(2-chlorophenyl)-N-cyclohexylimidazo[1,2-a]pyridin-3-amine]",12.2 µM,2.19 µM,
"Clc1ccc2nc(-c3ccccc3Cl)c(NC3CCCCC3)n2c1 [Compound 82, 6-chloro-2-(2-chlorophenyl)-N-cyclohexylimidazo[1,2-a]pyridin-3-amine]",14.5 µM,0.84 µM,
"N#Cc1cccc2nc(-c3ccccc3Cl)c(NC3CCCCC3)n12 [Compound 116, 2-(2-chlorophenyl)-3-(cyclohexylamino)imidazo[1,2-a]pyridine-5-carbonitrile]",3.47 µM,,
"N#Cc1ccc2nc(-c3ccccc3Cl)c(NC3CCCCC3)n2c1 [Compound 96, 2-(2-chlorophenyl)-3-(cyclohexylamino)imidazo[1,2-a]pyridine-6-carbonitrile]",6.6 µM,0.63 µM,
"Fc1ccc2nc(-c3ccccc3Cl)c(NC3CCCCC3)n2c1 [Compound 81, 2-(2-chlorophenyl)-N-cyclohexyl-6-fluoroimidazo[1,2-a]pyridin-3-amine]",11.3 µM,1.88 µM,
"Clc1ccc(-c2nc3ccccn3c2NC2CCCCC2)c(Cl)c1 [Compound 89, N-cyclohexyl-2-(2,4-dichlorophenyl)imidazo[1,2-a]pyridin-3-amine]",21.8 µM,2.95 µM,
"Brc1ccccc1-c1nc2ccccn2c1NC1CCCCC1 [Compound 43, 2-(2-bromophenyl)-N-cyclohexylimidazo[1,2-a]pyridin-3-amine]",10 µM,2.21 µM,
